Measured values as given in patent US9089526B2, “Pharmaceutical product and analysis model for hormone replacement therapy for women and prevention of some cancers and uterine myomas” (Universidad de Chile, priority 2009, dated 2015).

What was measured:
rat uterus [1] = experiment: Estrogenic (agonist) responses in the uterus of prepubertal female rats, substance alone; type: in vivo; conditions: s.c.
Experimental: (§1) Prepubertal female rats were treated s.c. with the vehicle (C) (0.3 mL 1:9 ethanol saline), or a phytoestrogenic preparation, followed after one hour by estradiol-17β (E) Merck (0.33 mg/kg b.wt.), or its vehicle. Among the phytoestrogenic compounds used, genistein (G) Sigma (0.5 mg/kg b.wt.), two different concentrations of soybean ethanol extracts (S): 0.06 (Sd) and 0.364 (Sc) mg genistin/kg b.wt., and extracts, decoctions or extract sub-fractions of various plant species. Genistein quantification was based in the indirect valoration of genistein following 2M HCl hydrolysis and genistein quantification by HPLC (45, 46). […] Uteri were excised under ether anesthesia and histologically processed for eosinophil quantification and morphometric analysis of different parameters of estrogen action (22, 34). The following parameters were quantified in the uterus: total uterine eosinophilia (6), percentage of eosinophils according to the distribution in different uterine histological layers and to their degree of degranulation (10, 14); deep endometrial and superficial endometrial edema (47); luminal epithelial, glandular epithelial (34) and myometrial (47) cell hypertrophy, luminal epithelial RNA content (34), and number of mitotic figures for each uterine cell-type.
(§2) Statistics: According to previous studies (14) using the Tukey test of additivity (50), data on some parameters of estrogen stimulation needs to be submitted to logarithmic transformation or to square or cubic root transformation to normalize distribution. Accordingly, the transformations were performed on some of the parameters of estrogen stimulation investigated (14). Transformed and non-transformed data were subjected to further statistical analysis.
(§3) Since multiple comparisons were performed between the different experimental conditions, transformed and non-transformed data (all parameters except eosinophil degranulation and eosinophil distribution between uterine tissue layers) were subjected to the least significant difference a posteriori (LSD) test. The common variance needed for this test was estimated from a one-way unbalanced analysis of variance (ANOVA).
(§4) In uterine eosinophil degranulation and distribution studies, the χ^2 statistic was used to evaluate differences between the proportions.

rat uterus [2] = experiment: Modification of estradiol-induced uterine responses in prepubertal female rats, substance given 1 h before estradiol-17β; type: in vivo; conditions: for Estrogen-induced endometrial edema: pretreatment 1 h before estradiol 0.33 mg/kg s.c.
Experimental: as §1, §2, §3, §4

[3] = tested on: human MCF-7 mammary cancer cells; experiment: In vitro growth (sulforhodamine B) assay, MCF-7 cells; type: cell-based; conditions: 72 h
Experimental: (§5) Cell lines. The experimental cell cultures were obtained from American Type Culture Collection (Rockville, Md., USA). MCF-7 and MDA-MB231 cells (estrogen receptor positive and negative respectively breast cancer cells) were grown in Dulbecco's modified Eagle's medium (DMEM) containing 10% FCS, 100 U/ml penicillin, 100 μg/ml streptomycin and 1 mM glutamine. Cells were seeded into 96 well microtiter plates in 100 μl at plating density of 3×10^3 cells/well. After 24 h incubation at 37° C. under a humidified 5% carbon dioxide to allow cell attachment, the cells were washed with phenol red-free and the medium was changed to phenol red-free DMEM supplemented with 4% dextran-charcoal-stripped foetal calf serum (DCFCS). Then the cells were treated with different concentrations of drugs and incubated for 72 h under the same conditions. Stock solution of compounds was prepared in ethanol and the final concentration of this solvent was kept constant at 1%. Control cultures received 1% ethanol alone.
(§6) In vitro growth inhibition assay. The sulforhodamine B assay was used according to the method of Skehan et al. 1990 (48) with some modifications (49). […] Protein-bound stain was solubilized with 100 μl of 10 mM unbuffered Tris base, and the cell density was determined using a […] (wavelength 540 nm). […]

[4] = tested on: human MDAMB-231 mammary cancer cells; experiment: In vitro growth (sulforhodamine B) assay, MDAMB-231 cells; type: cell-based; conditions: 72 h
Experimental: as §5, §6

[5] = pretreatment 1 h before estradiol, compared to estradiol alone
[6] = pretreatment 1 h before estradiol, mitoses
[7] = substance alone, absence of estradiol

O=c1c(-c2ccc(O)cc2)coc2cc(O)cc(O)c12 [G, genistein]
Edema in deep endometrial stroma (rat uterus [1]; 6 h (FIG. 4)): not by G or S
Proportion of uterine eosinophils located in the mesometrium and in the endometrium with myometrium (rat uterus [1]; 6 h (FIG. 6)): all the eosinophils were in the mesometrium
Endometrial luminal epithelial cell hypertrophy (rat uterus [1]; 24 h (FIG. 2)): response similar to E
Endometrial luminal epithelial cell RNA content (rat uterus [1]; 24 h (FIG. 3)): response similar to E
Cell proliferation (number of mitotic figures) in myometrium (rat uterus [1]; 24 h (FIG. 11)): not by G, Sd or Sc
Myometrial hypertrophy (rat uterus [1]; uteri excised 24 h after treatment (FIG. 1)): response similar to E
Estrogen-induced endometrial edema (rat uterus [2]; 6 h of treatment): antagonizes
Estrogen-induced endometrial edema (rat uterus [2]; 24 h of treatment): not at 24 h
Estrogen-induced uterine eosinophilia (rat uterus [2]; pretreatment 1 h before estradiol, 6 and 24 h considered together): mainly at 6 h of treatment
Estrogen-induced eosinophilia in the endometrial layer only (rat uterus [2]; pretreatment 1 h before estradiol, 6 or 24 h): decrease in eosinophils under estrogen treatment is stronger
Degranulation of uterine eosinophils in estrogen-treated rats (rat uterus [2]; [5]): decreases the degranulation
Proportion of uterine eosinophils by location (endometrium/myometrium vs mesometrium) in estrogen-treated rats (rat uterus [2]; [5]): decrease in the proportion of eosinophils located in endometrium with myometrium
Estrogen-induced cell proliferation in endometrial stroma (rat uterus [2]; [6]): almost completely block
Estrogen-induced cell proliferation in myometrium (rat uterus [2]; [6]): almost completely block
Estrogen-induced cell proliferation in uterine luminal epithelium (rat uterus [2]; [6]): almost completely block
Cell proliferation of cultured MCF-7 cells [3, 7]: increased
Cell proliferation of cultured MCF-7 cells ([3]; substance plus estradiol): cell proliferation induced by genistein plus estradiol is higher than that of estradiol alone
Cell proliferation of cultured MDAMB-231 cells [4, 7]: slightly inhibited
Cell proliferation of cultured MDAMB-231 cells ([4]; substance plus estradiol): in association with estradiol the inhibitory effect is stronger than that of genistein alone
